Test results published in PMC5444710, “Enhancement of radiosensitivity by the novel anticancer quinolone derivative vosaroxin in preclinical glioblastoma models” (Oncotarget, 2017).

How the values were obtained:
A172 cells = test: Clonogenic survival assay; type: cell-based, human
Procedure: (§1) For clonogenic survival assays, exponentially growing cells (70% confluence) were cultured in regular media and treated with vosaroxin, at the appropriate concentrations, or vehicle (final dimethyl sulfoxide concentration of 0.1%) for 48 hours. Tumor cells were then irradiated at room temperature with increasing doses of radiation (0–6 Gy) using an x-ray linear accelerator (dose rate of 200 cGy/min). Nonirradiated controls were handled identically to the irradiated cells with the exception of the radiation exposure. […] […] Colonies containing more than 50 cells were counted. The plating efficiency was calculated as the number of colonies observed divided by the number of cells plated. The surviving fraction was calculated as the number of colonies formed in the treated dishes compared with the number formed in the control. The survival curves were analyzed using SPSS statistical software (Chicago, IL, USA) by means of a fit of the data by a weighted, stratified, linear regression, according to the linear-quadratic formula: S(D)/S(O) = exp-(αD + βD2). The cell survival enhancement ratio was calculated as the ratio of the mean inactivation dose under control conditions divided by the mean inactivation dose after treatment as previously described.

T98G cells = test: Clonogenic survival assay; type: cell-based, human
Procedure: as §1

U87MG cells = test: Clonogenic survival assay; type: cell-based, human
Procedure: as §1

U251 cells = test: Clonogenic survival assay; type: cell-based, human
Procedure: as §1

[1] = system: U87MG, U251, and T98G xenografts; test: iNOS and arginase-1 expression in xenograft tissue extracts; type: in vivo, female CD1-nu/nu mice; conditions: tissue extracts from U87MG
Procedure: (§2) After appropriate treatments, tumor cell cultures and tissues were harvested for analysis of cytokine expression. Cell pellets were washed with PBS and lysed with RIPA buffer. Cell lysates and conditioned media were assayed by ELISA to measure (i) active human caspase-3 (CBA045, Merck Chemicals Ltd., Nottingham, UK), (ii) beclin-1 (E98557Hu, USCN Life Sciences, Houston, TX, USA), and (iii) DNA damage (EpiQuik in situ DNA Damage Assay Kit, Epigentek, Farmingdale, NY, USA). Tumor extracts were analyzed for the presence of:
(§3) • MMP-2 (KHC3081) • TNF-α (KHC3011, Life Technologies Italia, Monza, Italy) • CXCR4 (Cyto Glow CXCR4 [pSer339], cell-based ELISA, Assay Biotech, Sunnyvale, CA, USA) • Human Fas ligand (ELH-FASL, RayBiotech, Norcross, GA, USA) • IL-6 (orb50052) and survivin (orb50135) (Biorbyt) • TGF-β1 (Quantikine ELISA Kit, DB100B, R&D Systems, Minneapolis, MN, USA) • SDF-1α (Human CXCL12/SDF-1α Quantikine ELISA Kit, DSA00, R&D Systems) • Mouse IL-10 DuoSet ELISA DY417 (R&D Systems Minneapolis, MN, USA) • Mouse NOS2 / iNOS ELISA Kit (Sandwich ELISA) - LS-F12166 (LifeSpan Biosciences, Inc, Seattle, WA, USA) • Mouse ARG1 / Arginase-1 ELISA Kit (Sandwich ELISA) - LS-F10883 (LifeSpan Biosciences, Inc, Seattle, WA, USA)

caspase-3 = test: Caspase-3 activity (ELISA); type: cell-based, human; conditions: addition of vosaroxin (IC20) to RT
Procedure: as §2, with “USA).” for “USA). Tumor extracts were analyzed for the presence of:”

[2] = system: luciferase-transfected U251 cells; test: Orthotopic intra-brain model (DFS, OS)
U87MG xenografts = test: Cytokine expression in xenograft tissue extracts (ELISA); type: in vivo, female CD1-nu/nu mice; conditions: U87MG xenograft tissue extract
Procedure: as §2, §3
(§4) All determinations were performed in triplicate, according to manufacturers’ instructions. Data are presented as mean ± SE. Cytokine secretion determined by ELISA was normalized to total protein concentration in tissue lysates.

T98G xenografts = test: as above; type: in vivo, female CD1-nu/nu mice; conditions: T98G xenograft tissue extract
Procedure: as §2, §3, §4

U251 xenografts = test: as above; type: in vivo, female CD1-nu/nu mice; conditions: U251 xenograft tissue extract
Procedure: as §2, §3, §4

[3] = concentration equal to IC20, analyzed at 21 days of culture
[4] = irradiated 2, 4, 6 Gy 48 hours after drug exposure, calculated at a surviving fraction of 0.10

## CN[C@H]1CN(c2ccc3c(=O)c(C(=O)O)cn(-c4nccs4)c3n2)C[C@@H]1OC [vosaroxin]
A172 cells; [3]
  surviving fraction, vosaroxin alone: 0.87 ± 0.18
A172 cells; [4]
  dose enhancement factor: 1.24
T98G cells; [3]
  surviving fraction, vosaroxin alone: 0.84 ± 0.036
T98G cells; [4]
  dose enhancement factor: 1.40
U87MG cells; [3]
  surviving fraction, vosaroxin alone: 0.77 ± 0.18
U87MG cells; [4]
  dose enhancement factor: 1.55
U251 cells; [3]
  surviving fraction, vosaroxin alone: 0.80 ± 0.064
U251 cells; [4]
  dose enhancement factor: 1.33
[1]
  arginase-1 expression (M2 marker): low expression
  iNOS expression (M1 marker): high expression
caspase-3
  caspase-3 activity: increased
[2]; VSR vs TMZ + RT
  Disease-free Survival HR (95% CI): 1.2 (0.4–3.2)
  Overall Survival HR (95% CI): 1.5 (0.5–3.0)
[2]; VSR vs VSR + RT
  Disease-free Survival HR (95% CI): 2.4 (1.1–8.8)
  Overall Survival HR (95% CI): 4.5 (2.2–22.5)
[2]; orthotopic U251-luciferase, treated for 35 days starting 5 days after cell injection
  mean time of recurrence (DFS) ± SE: 70.5 ± 7.3 days
U87MG xenografts
  Human IL-6: 78 ± 13 pg/mg tissue
  Human TGF-β1: 47 ± 8
  Human TNF-α: 17 ± 3 pg/mg tissue
  Human and mouse IL-8: 715 ± 37 pg/mg tissue
  Mouse IL-1β: 85 ± 10 pg/mg tissue
  Mouse IL-10: 6.2 ± 0.5
  Mouse SDF-1α: 18 ± 3
T98G xenografts
  Human IL-6: 30 ± 3 pg/mg tissue
  Human TGF-β1: 27 ± 3
  Human TNF-α: 3 ± 1 pg/mg tissue
  Human and mouse IL-8: 440 ± 30 pg/mg tissue
  Mouse IL-1β: 27 ± 4 pg/mg tissue
  Mouse IL-10: < 1.0
  Mouse SDF-1α: 12 ± 4
U251 xenografts
  Human IL-6: 33 ± 8 pg/mg tissue
  Human TGF-β1: 35 ± 6
  Human TNF-α: 7 ± 1 pg/mg tissue
  Human and mouse IL-8: 275 ± 35 pg/mg tissue
  Mouse IL-1β: 44 ± 5 pg/mg tissue
  Mouse IL-10: 5.2 ± 0.6
  Mouse SDF-1α: 32 ± 3
